Measured values taken from patent publication US20200123190A1.

System: human pancreatic cancer cells (MIA-Paca-2)
Experiment: Cell growth inhibitory effect, alamarBlue
Format: cell-based
Details: MIA-Paca-2, cultured for 3 days
Description: Each of the test compounds (DMSO solutions in various concentrations) was added to 100 μL of a culture solution containing human pancreatic cancer cells (MIA-Paca-2) (cell count: about 5×10^3 cells) and cultured for 3 days. The cell growth inhibitory effect was investigated by fluorescence color development using alamarBlue reagent. Each of their IC50 values was determined.

Row | Compound | IC50 [µM] | IC50 (Homo sapiens, 72 h) [µM]
1 | O,′-Di (4-fluoro)benzyl 2′-deoxy-2′,2′-difluoro-5′-cytidylate [Compound (1)] | 9.8 | 
2 | O,O′— Di(4-bromo)benzyl 2′-deoxy-2′,2′-difluoro-5′-cytidylate [Compound (3)] | 21.8 | 
3 | Nc1ccn([C@@H]2O[C@H](CO)[C@@H](O)C2(F)F)c(=O)n1 [Gemcitabine, 2′-Deoxy-2′,2′-difluorocytidine, reference compound] |  | 7.4
4 | O,O′— Di (4-chloro)benzyl 2′-deoxy-2′,2′-difluoro-5′-cytidylate [Compound (2)] | 18 | 
